According to publication PMC1968196, “Effect of anthracycline analogs on photolabelling of p-glycoprotein by [125I]iodomycin and [3H]azidopine: relation to lipophilicity and inhibition of daunorubicin transport in multidrug resistant cells” (British Journal of Cancer, 1993):
Like-named read-outs stand apart in the source and are kept apart here.

Legend:
P-glycoprotein [1] = assay: [125I]iodomycin photolabelling of Pgp in EHR2/DNR+ cells; format: binding, mice; settings: iodomycin 10 nM
Source text: (§1) Br. J. Cancer (1993), 67, 226 231 ? Macmillan Press Ltd., 1993 Effect of anthracycline analogs on photolabelling of p-glycoprotein by I'25 liodomycin and [3Hlazidopine: Relation to lipophilicity and inhibition of daunorubicin transport in multidrug resistant cells E. Frichel*, E.J.F. Demant2, M. Sehested3 & N.I. Nissen' 'Department of Medicine and Hematology, L 4042, Rigshospitalet-University Hospital, 9, Blegdamsvej, DK-2100 Copenhagen; 2Department of Biochemistry C, The Panum Institute, University of Copenhagen, DK-2200 Copenhagen; 3Department of Pathology, Sundby Hospital, DK-2300 Copenhagen, Denmark. […] We photoaffinity labelled P-glycoprotein in daunorubicin (DNR) resistant Ehrlich ascites tumour cells (EHR2/DNR + ) with a ['25I]iodinated Bolton-Hunter derivative of daunorubicin ([1251]iodomycin) and with [3H]azidopine. […] Anthracyclines are among the most valuable cytostatic agents in clinical use. Their usefulness is, however, limited by the occurrence of tumour cells with the multidrug resistance (MDR) phenotype (Beck, 1987; Bliek & Borst, 1989; Endicott & Ling, 1989; Kaye & Merry, 1985; Moscow & Cowan, 1988). MDR cells have an enhanced amount of a 150- 170 kDa plasma membrane glycoprotein, P-glycoprotein (Pgp) (Kartner et al., 1983 and 1985; Cornwell et al., 1986; Bradley et al., 1988; Beck, 1991a; Roninson, 1991), that may function as a low-specificity transport protein to facilitate the outward transport of cytotoxic agents including the anthracyclines. Thus, increased drug efflux and therefore decreased accumulation is seen in MDR cells not only to the drug for which resistance is developed but also to a wide spectrum of chemically unrelated cytostatics (Bradley et al., 1988; Fojo et al., 1985). […] The aim of this study was to examine these analogs for their ability to com- pete for ligand binding to Pgp and thus service as inhibitors for the outward drug transport system in MDR cells. Anthracycline inter-actions with Pgp were assessed using the specific photolabelling of the protein with [251I]iodomycin, a ['251]iodinated Bolton-Hunter derivative of DNR (Busche et al., 1989a) and with [3H]azidopine ([3H]AZP) which photolabels Pgp in plasma membrane vesicles from EHR2/ DNR + cells (Sehested et al., 1990) as well as in whole cells (Safa et al., 1987; Friche et al., 1990c). […] Material and methods Chemicals Duanorubicin (DNR); AdriamycinR (Doxorubicin/HCl, DOX); 4'-deoxy-4'-iododoxorubicin (DIDOX); and 4- demethoxy-DNR were kindly supplied from Farmitalia, Carlo Erba (Milan, Italy). N,N-dibenzyl-DNR was a gift from Dr Nicholas Bachur, (Baltimore, MD) and N- benzyladriamycin-14-valerate (AD 198) a gift from Professor M. Israel (Memphis, TN). Mitoxantrone was purchased from Lederle (New Jersey, USA), Aclacinomycin A from Lund- beck & Co A/S (Copenhagen, Denmark), OncovinR (Vincristine/HCl, VCR) from Eli Lilly Deutschland GMBH (Giessen, Germany), Cremophor EL from BASF Aktiengesellschaft (Ludwigshafen, Germany), and Tween 80 from the Sigma Chemical Co. (St. Louis, MO). ['251]-Bolton- Hunter reagent (2000 Ci mmol 1), [3H]AZP (42 Ci mmol- ') and non-radioactive AZP were purchased from Amersham International (Amersham, UK). All other chemicals were of analytical grade. Organic solvents were distilled prior to use. Triethylamine was distilled over ninhydrin and anhydrous methanol was stored over molecular sieve (3 A). Tumour cells Cells were either the wild-type Ehrlich ascites tumor line (EHR2) or the corresponding DNR-resistant line (EHR2/ DNR + ) (Dan0, 1971) displaying both the MDR phenotype (Sehested et al., 1990) and as recently shown, decreased Correspondence: E. Friche. Received 22 April 1992; and in revised form 21 September 1992.

P-glycoprotein [2] = assay: [3H]azidopine photolabelling of Pgp in EHR2/DNR+ cells; format: binding, mice; settings: [3H]AZP 0.4 µM
Source text: as §1

EHR2/DNR+ [3] = settings: in vivo; ref Friche et al., 1987; cited from earlier work
EHR2/DNR+ [4] = settings: in vitro clonogenic assay; ref Friche et al., 1990b; cited from earlier work
[5] = pH 7.45
Source text: as §1

COc1cccc2c1C(=O)c1c(O)c3c(c(O)c1C2=O)C[C@@](O)(C(C)=O)C[C@@H]3O[C@H]1C[C@H](N)[C@H](O)[C@H](C)O1 [Daunorubicin]
Per cent inhibition of [125I]iodomycin photolabelling of Pgp (P-glycoprotein [1]; 10 µM drug (1000-fold molar excess), 30 min 37°C): 52.5% | Per cent inhibition of [125I]iodomycin photolabelling of Pgp (P-glycoprotein [1]; 20 µM drug): 82.7% | Per cent inhibition of [125I]iodomycin photolabelling of Pgp (P-glycoprotein [1]; 20 µM drug, listed as DNR): 83% | Per cent inhibition of [125I]iodomycin photolabelling of Pgp (P-glycoprotein [1]; 40 µM drug): 90.6% | Per cent inhibition of [125I]iodomycin photolabelling of Pgp (P-glycoprotein [1]; 40 µM drug, listed as DNR): 90% | Per cent inhibition of [3H]AZP photolabelling of Pgp (P-glycoprotein [2]; 10 µM drug): 8.0% | Per cent inhibition of [3H]AZP photolabelling of Pgp (P-glycoprotein [2]; 20 µM drug): 33.2% | Per cent inhibition of [3H]AZP photolabelling of Pgp (P-glycoprotein [2]; 40 µM drug (100-fold molar excess)): 50.0% | Resistance of EHR2/DNR+ subline (EHR2/DNR+ [3]): at least 16 fold | Resistance of EHR2/DNR+ subline (EHR2/DNR+ [4]): about 80 fold | Lipid solubility (O/W), octanol/water partition coefficient [5]: 7.85
